Patent publication US20210121456A1, “USE OF METHYLNALTREXONE TO ATTENUATE TUMOR PROGRESSION” (Salix Pharmaceuticals, Inc., priority 2014, published 2021)

Test system: patients with advanced cancers (and non-cancer advanced illness) and opioid-induced constipation
Experiment: Pooled post-hoc analysis of Study 1 and Study 2: deaths and overall survival
Assay type: in vivo, human
Method: Routine adverse event (AE) evaluations described in Example 3 were analyzed. AEs of tumor progression in specific cancers and survival analysis of the placebo and methylnaltrexone-treated cohorts in the clinical studies were tabulated. Both studies were randomized, placebo-controlled trials that involved a 2-week treatment period followed by a 2-week follow-up period. The enrolled subjects were advanced illness (incurable cancer or other end-stage disease) subjects with OIC who were receiving stable doses of laxatives and opioid analgesics. In the context of the study, a stable dose of opioid analgesics was defined as no reduction in the dose of opioid analgesic of ≥50% for at least three days before the first dose of MNTX. A stable dose of laxatives was defined as having a standing laxative order (and not PRN, or as-needed) for at least three days before the first dose of MNTX. A diagnosis of constipation was provided if the subject had (a) fewer than 3 bowel movements during the previous week by history and no clinically notable laxation in the 24 hours before the first dose of MNTX, or (b) no clinical notable laxation in the 48 hours before the first dose of MNTX. In Study 1 (Example 1), subjects received subcutaneous MNTX 0.15 mg/kg or placebo (PBO) every other day (QOD), and in Study 2 (Example 2) subjects received subcutaneous MNTX (8 mg or 12 mg based on body weight 38 to <62 kg or ≥62 kg, respectively) or placebo administered QOD. The 12 mg fixed dose was designed to correspond to the 0.15 mg/kg weight-based dose. Rescue-laxatives, enemas or manual disimpactions were not administered within 4 hours before or after each dose of MNTX. […] For statistical significance testing, the Fisher's exact test was used (p<0.05).
Subsequent to the initial pooled analysis in Example 3, the data from Study 1 and Study 2 was re-analyzed for overall survival (OS) in a post-hoc analysis. Overall survival (OS) was defined as the time interval from the treatment initiation to the date of death or the date of last follow up, whichever occurred first. […] In Study 2, 151 of the enrolled 229 patients were diagnosed with advanced cancers. […] FIG. 12 provides a schematic of the subjects with advanced cancers from the pooled studies that were analyzed in the subsequent analysis. Table 3 provides the patient characteristics from the subsequent pooled analysis of the two studies. Table 4 provides a distribution of the type of cancer diagnosed in the subjects analyzed for survival.
Table 7 lists the number of deaths and survivors in both the placebo and the methylnaltrexone-treated groups for subjects diagnosed with lung, breast, prostate, pancreatic and colon cancer. The groups are further categorized into methylnaltrexone responders and methylnaltrexone non-responders alone or in combination with the placebo group. The analysis included the results from the double-blind and open label phases of the studies. When the group of MNTX-treated subjects across both studies was examined, there was a significant difference in the percentage of subject deaths between the MNTX-responsive group and the MNTX non-responsive group, with the number of survivors in the MNTX-responsive group exceeding the number of survivors in the MNTX non-responsive group. […] For the analysis in Table 7, a subject with laxation within 0-4 hours after two of the first four doses of MNTX was considered a responder. The data in Table 6 may vary slightly from that in Table 4 based on how the subjects were coded as cancer patients during analysis of the data. […]
For the analysis carried out in this Example and in Example 3, a subject with laxation occurring from 0-4 hours after two of the first four doses of MNTX was considered a MNTX responder or responsive subject. Data for placebo patients who elected to participate in the open-label MNTX treatment phase was collected from the first 4 doses of open-label treatment. […]

[1] = Excluding crossover to MNTX (MNTX 117, placebo 61)
[2] = Patients on placebo (crossover to MNTX 51, placebo 61)
[3] = Table 6, Non-Responders (versus Responders < 4hr)
[4] = Table 6, Non-Responders (versus Responders < 8hr)
[5] = Table 6, Non-Responders (versus Responders < 12hr)
[6] = Table 6, Non-Responders (versus Responders < 24hr)
[7] = Table 7, MNTX All, Total of five cancers
[8] = Table 7, MNTX Non-Responders, Breast
[9] = Table 7, MNTX Non-Responders, Colon
[10] = Table 7, MNTX Non-Responders, Lung
[11] = Table 7, MNTX Non-Responders, Pancreas
[12] = Table 7, MNTX Non-Responders, Prostate
[13] = Table 7, MNTX Non-Responders, Total of five cancers
[14] = Table 7, MNTX Responders, Breast
[15] = Table 7, MNTX Responders, Colon
[16] = Table 7, MNTX Responders, Pancreas
[17] = Table 7, MNTX Responders, Prostate
[18] = Table 7, MNTX Responders, Total of five cancers

For `C[N@+]1(CC2CC2)CC[C@]23c4c5ccc(O)c4O[C@H]2C(=O)CC[C@@]3(O)[C@H]1C5.[Br-]` [MNTX, (R)—N-(cyclopropylmethyl) noroxymorphone methobromide], which “overall survival MNTX vs. placebo” value (134 patients with advanced illness other than cancer, p=0.88) is on record?
The value was “no difference”.

And the “Hazard Ratio, Treatment: MNTX vs. placebo (overall survival, Cox regression)” value (All patients (MNTX 117, placebo 112))?
The value was 0.70.

What about the “Hazard Ratio, Response vs. no response” value [1] of the same compound?
The value was 0.32.

What about the “Hazard Ratio, Treatment: MNTX vs. placebo” value [1] of the same compound?
Its value is 0.32.

And the “Deaths (number)” value (MNTX All Patients, Cancer)?
Its value is 45.

And the “Deaths (number)” value (MNTX All Patients, Non-Cancer)?
Its value is 11.

And the “Deaths (%)” value (MNTX All Patients, Totals)?
The value was “(31.3%)”.

And the “Deaths (number)” value (MNTX All Patients, Totals)?
The value was 56.

What about the “Deaths (number)” value (MNTX Non-Responders, Cancer) of the same compound?
The value was 23.

And the “Deaths (number)” value (MNTX Non-Responders, Non-Cancer)?
Its value is 5.

What about the “Deaths (%)” value (MNTX Non-Responders, Totals) of the same compound?
Its value is “(39.4%)”.

And the “Deaths (number)” value (MNTX Non-Responders, Totals)?
Its value is 28.

And the “Deaths (number)” value (MNTX Responders, Cancer)?
Its value is 22.

And the “Deaths (number)” value (MNTX Responders, Non-Cancer)?
Its value is 6.

What about the “Deaths (%)” value (MNTX Responders, Totals) of the same compound?
Its value is “(25.9%)”.

And the “Deaths (number)” value (MNTX Responders, Totals)?
Its value is 28.

What about the “median overall survival (OS)” value (MNTX non-responsive group (45 subjects)) of the same compound?
Its value is 58 days.

What about the “overall survival (OS)” value (MNTX-responsive group, analysis before the updated analysis (FIG. 9)) of the same compound?
The value was 121 days.

And the “Hazard Ratio, Response vs. no response” value [2]?
The value was 0.64.

What about the “Hazard Ratio, Treatment: MNTX vs. placebo” value [2] of the same compound?
The value was 0.15.

And the “% Deaths” value [3]?
The value was 50.0%.

And the Deaths [3]?
The Deaths was 22.

What about the Survivors [3] of the same compound?
Its Survivors is 22.

What about the “% Deaths” value [4] of the same compound?
Its value is 53.8%.

What about the Deaths [4] of the same compound?
The Deaths was 21.

What about the Survivors [4] of the same compound?
The Survivors was 18.

What about the “% Deaths” value [5] of the same compound?
The value was 50.0%.

And the Deaths [5]?
Its Deaths is 18.

And the Survivors [5]?
The Survivors was 18.

And the “% Deaths” value [6]?
Its value is 48.4%.

And the Deaths [6]?
The Deaths was 15.

What about the Survivors [6] of the same compound?
The Survivors was 16.

And the “% Deaths” value (Table 6, Responders < 4hr)?
The value was 31.5%.

What about the Deaths (Table 6, Responders < 4hr) of the same compound?
Its Deaths is 23.

And the Survivors (Table 6, Responders < 4hr)?
Its Survivors is 50.

And the “% Deaths” value (Table 6, Responders < 8hr)?
The value was 30.8%.

What about the Deaths (Table 6, Responders < 8hr) of the same compound?
Its Deaths is 24.

What about the Survivors (Table 6, Responders < 8hr) of the same compound?
Its Survivors is 54.

What about the “% Deaths” value (Table 6, Responders < 12hr) of the same compound?
Its value is 33.3%.

What about the Deaths (Table 6, Responders < 12hr) of the same compound?
Its Deaths is 27.

What about the Survivors (Table 6, Responders < 12hr) of the same compound?
Its Survivors is 54.

What about the “% Deaths” value (Table 6, Responders < 24hr) of the same compound?
Its value is 34.9%.

What about the Deaths (Table 6, Responders < 24hr) of the same compound?
The Deaths was 30.

And the Survivors (Table 6, Responders < 24hr)?
Its Survivors is 56.

And the Deaths (Table 7, MNTX All, Breast)?
Its Deaths is 3.

And the “Deaths (%)” value (Table 7, MNTX All, Breast)?
The value was 21.4%.

And the Survivors (Table 7, MNTX All, Breast)?
The Survivors was 11.

And the Deaths (Table 7, MNTX All, Colon)?
The Deaths was 1.

And the “Deaths (%)” value (Table 7, MNTX All, Colon)?
Its value is 25.0%.

And the Survivors (Table 7, MNTX All, Colon)?
Its Survivors is 3.

What about the Deaths (Table 7, MNTX All, Lung) of the same compound?
Its Deaths is 14.

What about the “Deaths (%)” value (Table 7, MNTX All, Lung) of the same compound?
The value was 45.2%.

And the Survivors (Table 7, MNTX All, Lung)?
The Survivors was 17.

What about the Deaths (Table 7, MNTX All, Pancreas) of the same compound?
The Deaths was 3.

And the “Deaths (%)” value (Table 7, MNTX All, Pancreas)?
Its value is 33.3%.

And the Survivors (Table 7, MNTX All, Pancreas)?
The Survivors was 6.

And the Deaths (Table 7, MNTX All, Prostate)?
Its Deaths is 5.

And the “Deaths (%)” value (Table 7, MNTX All, Prostate)?
The value was 41.7%.

And the Survivors (Table 7, MNTX All, Prostate)?
Its Survivors is 7.

And the Deaths [7]?
The Deaths was 26.

What about the “Deaths (%)” value [7] of the same compound?
Its value is 37.7%.

What about the Survivors [7] of the same compound?
The Survivors was 43.

What about the Deaths [8] of the same compound?
The Deaths was 2.

What about the “Deaths (%)” value [8] of the same compound?
Its value is 50.0%.

And the Survivors [8]?
The Survivors was 2.

What about the Deaths [9] of the same compound?
The Deaths was 0.

And the “Deaths (%)” value [9]?
The value was 0.0%.

And the Survivors [9]?
The Survivors was 1.

What about the Deaths [10] of the same compound?
Its Deaths is 8.

What about the “Deaths (%)” value [10] of the same compound?
The value was 47.1%.

What about the Survivors [10] of the same compound?
Its Survivors is 9.

And the Deaths [11]?
The Deaths was 3.

And the “Deaths (%)” value [11]?
The value was 75.0%.

And the Survivors [11]?
Its Survivors is 1.

And the Deaths [12]?
The Deaths was 3.

And the “Deaths (%)” value [12]?
Its value is 60.0%.

And the Survivors [12]?
The Survivors was 2.

And the Deaths [13]?
The Deaths was 16.

And the “Deaths (%)” value [13]?
The value was 51.6%.

What about the Survivors [13] of the same compound?
Its Survivors is 15.

And the Deaths (Table 7, MNTX Responders (laxation within 0-4 hours after two of the first four doses), Lung)?
The Deaths was 6.

What about the Deaths [14] of the same compound?
Its Deaths is 1.

What about the “Deaths (%)” value [14] of the same compound?
The value was 10.0%.

And the Survivors [14]?
Its Survivors is 9.

What about the Deaths [15] of the same compound?
The Deaths was 1.

And the “Deaths (%)” value [15]?
Its value is 33.3%.

And the Survivors [15]?
Its Survivors is 2.

And the “Deaths (%)” value (Table 7, MNTX Responders, Lung)?
The value was 42.9%.

What about the Survivors (Table 7, MNTX Responders, Lung) of the same compound?
The Survivors was 8.

And the Deaths [16]?
Its Deaths is 0.

And the “Deaths (%)” value [16]?
The value was 0.0%.

What about the Survivors [16] of the same compound?
Its Survivors is 5.

What about the Deaths [17] of the same compound?
The Deaths was 2.

And the “Deaths (%)” value [17]?
The value was 28.6%.

And the Survivors [17]?
The Survivors was 5.

And the Deaths [18]?
The Deaths was 10.

And the “Deaths (%)” value [18]?
The value was 26.3%.

What about the Survivors [18] of the same compound?
Its Survivors is 28.

What about the “median overall survival (OS)” value (cancer patients treated with MNTX (n=117)) of the same compound?
Its value is 76 days.

What about the “median overall survival (OS)” value (cancer patients with response to MNTX (n=72)) of the same compound?
Its value is 118 days.

What about the “median OS” value (lung cancer patients (n=15) with response to MNTX) of the same compound?
The value was 118 days.

What about the “median OS” value (lung cancer, 32 patients treated with MNTX) of the same compound?
The value was 118 days.

What about the Deaths (pancreatic cancer, 4 patients with response to MNTX) of the same compound?
Its Deaths is “no death”.

What about the “median OS” value (pancreatic cancer, 8 patients treated with MNTX) of the same compound?
The value was 76 days.

And the “survival extended after administration” value (pancreatic cancer, methylnaltrexone-responsive group, initial analysis (FIG. 12))?
Its value is about 100 days.

And the “median OS” value (placebo patients (n=23) with response to MNTX during open-label treatment)?
Its value is 74 days.

What about the median overall survival (placebo patients (n=56) who crossed over to MNTX) of the same compound?
The median overall survival was 75 days.
